How the values were obtained:
Assay in all cases: Whole blood assay, LPS stimulation, MSD cytokine detection
IL-6 = type: cell-based; details: fresh whole bovine blood
IL-1β = type: cell-based, bovine; details: fresh whole bovine blood, LPS stimulation; drug concentration giving overstimulation (OS) of IL-1β
Experimental: (§1) Compounds of the invention were evaluated against a positive control for their ability to inhibit LPS-induced IL-1p and TNF-α as an overall evaluation of relative potency and modulation of target pathways.
(§2) In the bovine whole blood in vitro screening assay the inhibition of TNFα as induced by stimulation by lipopolysaccharide (LPS) and as measured by half the maximal inhibitory concentration (IC50) is recognized as the primary biomarker of immunomodulation potency upon pretreatment with the compounds of the invention. IL-1β is a mediator of the inflammation response and is involved in a number of cellular activities including proliferation, differentiation and apoptosis. IL-1β is also released upon cellular stress or cytotoxicity or upon TLR stimulation. In the bovine whole blood assay the stimulation of IL-1β release upon increasing concentration of test compound is seen as a potential cellular toxicity signal as induced by the test compound. In order to estimate a therapeutic index from the in vitro assay a differential between the TNFα IC50 (immunomodulation potency) versus the perceived cellular toxicity concentration (IL-1β release or overstimulation) was utilized. […] As the in vitro assay index approaches 1 it is proposed that the balance between immunomodulation and cytotoxicity would be too narrow in order to achieve an efficacious dose in vivo.

TNF-α = type: cell-based; details: fresh whole bovine blood
Experimental: as §1, §2

CC[C@H]1OC(=O)[C@H](C)[C@@H](O)[C@H](C)[C@@H](O[C@@H]2O[C@H](C)C[C@H](N(C)C(=O)N(C)C3CCC3)[C@H]2Oc2ccccc2)[C@](C)(O)C[C@@H](C)CN[C@H](C)[C@@H](O)[C@]1(C)O [Example C-21]
IC50 (IL-6): 18 µM
IL-1ß OS of LPS (IL-1β): 8 µM
IC50 (TNF-α): 28 µM

CC[C@H]1OC(=O)[C@H](C)[C@@H](O)[C@H](C)[C@@H](O[C@@H]2O[C@H](C)C[C@H](N(C)C(=O)N(C)c3ncccn3)[C@H]2Oc2ccccc2)[C@](C)(O)C[C@@H](C)CN(C)[C@H](C)[C@@H](O)[C@]1(C)O [Example C-22]
IC50 (IL-6): 151 µM
IL-1ß OS of LPS (IL-1β): 100 µM
IC50 (TNF-α): 94 µM

CC[C@H]1OC(=O)[C@H](C)[C@@H](O)[C@H](C)[C@@H](O[C@@H]2O[C@H](C)C[C@H](N(C)C(=O)N(C)C)[C@H]2Oc2ccc(F)cc2C)[C@](C)(O)C[C@@H](C)CN[C@H](C)[C@@H](O)[C@]1(C)O [Example C-25]
IC50 (IL-6): 25 µM
IL-1ß OS of LPS (IL-1β): 40 µM
IC50 (TNF-α): 59 µM

CC[C@H]1OC(=O)[C@H](C)[C@@H](O)[C@H](C)[C@@H](O[C@@H]2O[C@H](C)C[C@H](N(C)C(=O)N(C)c3ccccc3)[C@H]2Oc2ccc(Cl)nc2)[C@](C)(O)C[C@@H](C)CN[C@H](C)[C@@H](O)[C@]1(C)O [Example C-33]
IC50 (IL-6): < 1 µM
IL-1ß OS of LPS (IL-1β): 16 µM
IC50 (TNF-α): 6 µM

CC[C@H]1OC(=O)[C@H](C)[C@@H](O)[C@H](C)[C@@H](O[C@@H]2O[C@H](C)C[C@H](N(C)C(=O)N(C)c3ccccc3)[C@H]2Oc2ccc(OC)c(OC(C)C)c2)[C@](C)(O)C[C@@H](C)CN[C@H](C)[C@@H](O)[C@]1(C)O [Example C-34]
IC50 (IL-6): 16 µM
IL-1ß OS of LPS (IL-1β): 16 µM
IC50 (TNF-α): 28 µM

CC[C@H]1OC(=O)[C@H](C)[C@@H](O)[C@H](C)[C@@H](O[C@@H]2O[C@H](C)C[C@H](N(C)C(=O)N(C)c3ccccc3)[C@H]2Oc2ccc3ncccc3c2)[C@](C)(O)C[C@@H](C)CN(C)[C@H](C)[C@@H](O)[C@]1(C)O [Example C-35]
IC50 (IL-6): 18 µM
IL-1ß OS of LPS (IL-1β): >250 µM
IC50 (TNF-α): 12 µM

CCOc1cccc(O[C@H]2[C@H](O[C@@H]3[C@@H](C)[C@H](O)[C@@H](C)C(=O)O[C@H](CC)[C@@](C)(O)[C@H](O)[C@@H](C)NC[C@H](C)C[C@@]3(C)O)O[C@H](C)C[C@@H]2N(C)C(=O)N(C)c2ccc(N(C)C)cc2)c1 [Example C-36]
IC50 (IL-6): 10 µM
IL-1ß OS of LPS (IL-1β): 16 µM
IC50 (TNF-α): 2 µM

CCOc1cccc(O[C@H]2[C@H](O[C@@H]3[C@@H](C)[C@H](O)[C@@H](C)C(=O)O[C@H](CC)[C@@](C)(O)[C@H](O)[C@@H](C)NC[C@H](C)C[C@@]3(C)O)O[C@H](C)C[C@@H]2N(C)C(=O)N(C)c2ccccc2)c1 [Example C-37]
IC50 (IL-6): < 1 µM
IL-1ß OS of LPS (IL-1β): 16 µM
IC50 (TNF-α): 5 µM

CC[C@H]1OC(=O)[C@H](C)[C@@H](O)[C@H](C)[C@@H](O[C@@H]2O[C@H](C)C[C@H](N(C)C(=O)N(C)c3ccccc3)[C@H]2Oc2ccccc2Cl)[C@](C)(O)C[C@@H](C)CN[C@H](C)[C@@H](O)[C@]1(C)O [Example C-38]
IC50 (IL-6): 26 µM
IL-1ß OS of LPS (IL-1β): 16 µM
IC50 (TNF-α): 5 µM

CC[C@H]1OC(=O)[C@H](C)[C@@H](O)[C@H](C)[C@@H](O[C@@H]2O[C@H](C)C[C@H](N(C)C(=O)N(C)c3ccccc3)[C@H]2Oc2cc(F)c(OC)c(F)c2)[C@](C)(O)C[C@@H](C)CN[C@H](C)[C@@H](O)[C@]1(C)O [Example C-42]
IC50 (IL-6): 12 µM
IL-1ß OS of LPS (IL-1β): 16 µM
IC50 (TNF-α): 5 µM

CC[C@H]1OC(=O)[C@H](C)[C@@H](O)[C@H](C)[C@@H](O[C@@H]2O[C@H](C)C[C@H](N(C)C(=O)N(C)c3ccc(C#N)cc3)[C@H]2Oc2ccccc2Cl)[C@](C)(O)C[C@@H](C)CN[C@H](C)[C@@H](O)[C@]1(C)O [Example C-43]
IC50 (IL-6): 32 µM
IL-1ß OS of LPS (IL-1β): 16 µM
IC50 (TNF-α): 21 µM

CC[C@H]1OC(=O)[C@H](C)[C@@H](O)[C@H](C)[C@@H](O[C@@H]2O[C@H](C)C[C@H](N(C)C(=O)N(C)c3ccccc3)[C@H]2Oc2cc(F)c(OC)c(F)c2)[C@](C)(O)C[C@@H](C)CN(C)[C@H](C)[C@@H](O)[C@]1(C)O [Example C-49]
IC50 (IL-6): 136 µM
IL-1ß OS of LPS (IL-1β): 6 µM
IC50 (TNF-α): 181 µM

CC[C@H]1OC(=O)[C@H](C)[C@@H](O)[C@H](C)[C@@H](O[C@@H]2O[C@H](C)C[C@H](N(C)C(=O)N3CCOc4ccccc43)[C@H]2Oc2ccccc2)[C@](C)(O)C[C@@H](C)CN(C)[C@H](C)[C@@H](O)[C@]1(C)O [Example D-2]
IC50 (IL-6): 148 µM
IL-1ß OS of LPS (IL-1β): 16 µM
IC50 (TNF-α): 40 µM

CC[C@H]1OC(=O)[C@H](C)[C@@H](O)[C@H](C)[C@@H](O[C@@H]2O[C@H](C)C[C@H](N(C)C(=O)N3CCOc4ccccc43)[C@H]2Oc2ccccc2)[C@](C)(O)C[C@@H](C)CN[C@H](C)[C@@H](O)[C@]1(C)O [Example D-3]
IC50 (IL-6): 50 µM
IL-1ß OS of LPS (IL-1β): 16 µM
IC50 (TNF-α): 20 µM

CC[C@H]1OC(=O)[C@H](C)[C@@H](O[C@H]2C[C@@](C)(OC)[C@](O)(CNCC3CC3)[C@H](C)O2)[C@H](C)[C@@H](O[C@@H]2O[C@H](C)C[C@H](N(C)C)[C@H]2Oc2ccc(F)cc2)[C@](C)(O)C[C@@H](C)CN[C@H](C)[C@@H](O)[C@]1(C)O [Example E-37]
IC50 (IL-6): 17 µM
IL-1ß OS of LPS (IL-1β): 16 µM
IC50 (TNF-α): 6 µM

CC[C@H]1OC(=O)[C@H](C)[C@@H](O[C@H]2C[C@@](C)(OC)[C@](O)(CNn3ccnc3)[C@H](C)O2)[C@H](C)[C@@H](O[C@@H]2O[C@H](C)C[C@H](N(C)C)[C@H]2Oc2ccccc2)[C@](C)(O)C[C@@H](C)CN[C@H](C)[C@@H](O)[C@]1(C)O [Example E-40]
IC50 (IL-6): 55 µM
IL-1ß OS of LPS (IL-1β): 40 µM
IC50 (TNF-α): 11 µM

CCCNC[C@]1(O)[C@H](C)O[C@@H](O[C@H]2[C@H](C)[C@@H](O[C@@H]3O[C@H](C)C[C@H](N(C)C)[C@H]3Oc3ccc4ncccc4c3)[C@](C)(O)C[C@@H](C)CN[C@H](C)[C@@H](O)[C@](C)(O)[C@@H](CC)OC(=O)[C@@H]2C)C[C@@]1(C)OC [Example E-69]
IC50 (IL-6): 68 µM
IL-1ß OS of LPS (IL-1β): 16 µM
IC50 (TNF-α): 19 µM

CCCNC[C@]1(O)[C@H](C)O[C@@H](O[C@H]2[C@H](C)[C@@H](O[C@@H]3O[C@H](C)C[C@H](NC)[C@H]3Oc3ccccc3OCC)[C@](C)(O)C[C@@H](C)CN[C@H](C)[C@@H](O)[C@](C)(O)[C@@H](CC)OC(=O)[C@@H]2C)C[C@@]1(C)OC [Example E-78]
IC50 (IL-6): 54 µM
IL-1ß OS of LPS (IL-1β): 17 µM
IC50 (TNF-α): 16 µM

CCCNC[C@]1(O)[C@H](C)O[C@@H](O[C@H]2[C@H](C)[C@@H](O[C@@H]3O[C@H](C)C[C@H](NC)[C@H]3Oc3ccc(S(C)(=O)=O)cc3)[C@](C)(O)C[C@@H](C)CN[C@H](C)[C@@H](O)[C@](C)(O)[C@@H](CC)OC(=O)[C@@H]2C)C[C@@]1(C)OC [Example E-80]
IC50 (IL-6): 65 µM
IL-1ß OS of LPS (IL-1β): >250 µM
IC50 (TNF-α): 45 µM

CCCNC[C@]1(O)[C@H](C)O[C@@H](O[C@H]2[C@H](C)[C@@H](O[C@@H]3O[C@H](C)C[C@H](NC)[C@H]3Oc3ccc(C(N)=O)cc3)[C@](C)(O)C[C@@H](C)CN[C@H](C)[C@@H](O)[C@](C)(O)[C@@H](CC)OC(=O)[C@@H]2C)C[C@@]1(C)OC [Example E-110]
IC50 (IL-6): 175 µM
IL-1ß OS of LPS (IL-1β): >500 µM
IC50 (TNF-α): 125 µM

CC[C@H]1OC(=O)[C@H](C)[C@@H](O[C@H]2C[C@@](C)(OC)[C@](O)(CN(C)CCN(C)C)[C@H](C)O2)[C@H](C)[C@@H](O[C@@H]2O[C@H](C)C[C@H](N(C)C)[C@H]2Oc2ccc(F)cc2)[C@](C)(O)C[C@@H](C)CN[C@H](C)[C@@H](O)[C@]1(C)O [Example E-113]
IC50 (IL-6): 40 µM
IL-1ß OS of LPS (IL-1β): 40 µM
IC50 (TNF-α): 17 µM

CC[C@H]1OC(=O)[C@H](C)[C@@H](O[C@H]2C[C@@](C)(OC)[C@](O)(CNCCN(C)C)[C@H](C)O2)[C@H](C)[C@@H](O[C@@H]2O[C@H](C)C[C@H](N(C)C)[C@H]2Oc2ccc(F)cc2)[C@](C)(O)C[C@@H](C)CN[C@H](C)[C@@H](O)[C@]1(C)O [Example E-114]
IC50 (IL-6): 52 µM
IL-1ß OS of LPS (IL-1β): 40 µM
IC50 (TNF-α): 13 µM

CC[C@H]1OC(=O)[C@H](C)[C@@H](O[C@H]2C[C@@](C)(OC)[C@](O)(CNCCOC)[C@H](C)O2)[C@H](C)[C@@H](O[C@@H]2O[C@H](C)C[C@H](N(C)C)[C@H]2Oc2ccc(F)cc2)[C@](C)(O)C[C@@H](C)CN[C@H](C)[C@@H](O)[C@]1(C)O [Example E-116]
IC50 (IL-6): 10 µM
IL-1ß OS of LPS (IL-1β): 16 µM
IC50 (TNF-α): 5 µM

Reference: patent US12390441B2, “Immunomodulating o-het/aryl azalides” (Zoetis Services LLC, priority 2020, dated 2025)
